Experimental data published in publication PMC8667942 (Journal of Enzyme Inhibition and Medicinal Chemistry, 2021).
Several values for one entry are separate records, joined by “and”; a condition that tells them apart may be missing. Equal entries are not always repeated. Entries after “also recorded” stand apart in the source; their conditions may differ.

How the values were obtained:
[1] = target: purified CYP3A4 (Homo sapiens, UniProt P08684); test: Spectral binding titration of purified CYP3A4; settings: 1 µM purified CYP3A4, pH 7.4, no binding = no spectral change up to 200 μM; for Kd: read-out: CYP3A4 Kd (spectral dissociation constant)
Procedure: Purified CYP3A4 enzymes were diluted to 1 µM in 100 mM potassium phosphate buffer (pH 7.4) and then divided into two glass cuvettes. […] The binding titration was analysed using GraphPad Prism software (GraphPad, Inc., La Jolla, CA, USA).

[2] = target: T1, human IP6K2 (Homo sapiens, UniProt Q9UHH9); test: IP6K2 inhibition assay (ADP Glo kinase assay); assay type: biochemical; settings: purified human IP6K2, 10 μM IP6, 10 μM ATP, 8-dose, triplicate, mean ± SEM
T1 construct: made in house; host or cells: Sf9 insect cells (baculovirus)
T1 sequence (Q9UHH9 1-426): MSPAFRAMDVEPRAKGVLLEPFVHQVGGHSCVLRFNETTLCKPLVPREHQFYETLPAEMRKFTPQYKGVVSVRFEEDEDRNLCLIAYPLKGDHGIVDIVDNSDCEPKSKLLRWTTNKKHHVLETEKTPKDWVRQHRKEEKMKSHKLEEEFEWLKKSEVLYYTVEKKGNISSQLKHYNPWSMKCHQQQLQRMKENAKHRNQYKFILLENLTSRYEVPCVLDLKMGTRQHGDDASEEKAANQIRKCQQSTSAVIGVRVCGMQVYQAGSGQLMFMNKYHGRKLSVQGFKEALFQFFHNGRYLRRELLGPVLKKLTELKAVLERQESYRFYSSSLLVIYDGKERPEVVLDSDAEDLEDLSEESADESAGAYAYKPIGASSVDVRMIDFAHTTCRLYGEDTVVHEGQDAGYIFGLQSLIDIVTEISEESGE
Procedure: Full-length human IP6K2 cDNA was subcloned into pFASTBAC1 plasmid (Gibco) with an N-terminal FLAG epitope sequence, and baculovirus was generated according to the manufacturer’s instructions. Sf9 insect cells were infected with baculovirus and incubated for 72 h. The cells were resuspended in lysis buffer [20 mM Tris–HCl (pH 7.9), 500 mM NaCl, 4 mM MgCl2, 0.4 mM EDTA, 2 mM DTT, 20% glycerol, 1 mM PMSF, and protease inhibitor cocktail (Roche)] and then disrupted with a Dounce homogeniser (pestle A, 3 series of 10 strokes with 10 min interval).
IP6K2 activity was measured using ADP Glo assay kit (Promega). All kinase assays were performed in low volume 384-well white plates (784075, Greiner-bioone) with a final volume of 5 μL. The reaction buffer contained 2 ng Flag-hIP6K2, 10 μM IP6, and 10 μM ATP in kinase buffer (50 mM Tris, 10 mM MgCl2, 2.5 mM DTT, 0.02% Triton-X-100, pH 6.8)[26]. For dose-dependent inhibition assay, 8 serial 2-fold dilutions of test compounds were prepared in DMSO. The final DMSO concentration was 5% in each reaction. The test compounds (5X, 25% DMSO in 1X kinase buffer) were dispensed to each well, and 2.5 X IP6K2 in kinase buffer were added. After 15 min incubation at room temperature, 2.5 X concentrations of IP6 and ATP were added to the plate. The reaction plate was incubated in a 37 °C incubator for 30 min. Next, the reactions were quenched with 5 μL of ADP Glo reagent for 40 min to deplete the remaining ATP. To convert the remaining ADP to ATP, 10 μl of detection reagent were added and incubated for 30–60 min. The luminescence of the final reactants was measured using the Mithras LB940 plate reader from Berthold. Samples were run in triplicate and the activity (%) was calculated using the following equations; Activity (%) = 100 × (μexperimental–μnegative)/(μpositive–μnegative). Negative control was DSMO-treated reaction. IC50 value was estimated using a logistic regression model with R package.

[3] = test system: IP7 synthesis in HCT116 cells; test: Quantification of intracellular inositol phosphates by HPLC in radiolabeled HCT116; assay type: cell-based, human; settings: HCT116, 50 μM, 4 h
Procedure: For HPLC analysis, 2 × 10^5 cells/60 mm dish of HCT116 were treated with 75 μCi [^3H] myo-inositol (NET1177001MC, PerkinElmer). After 3 days, soluble inositol polyphosphates from HCT116 (human colorectal cancer cell line) were extracted and analysed as previously described. Intracellular inositol phosphates were extracted with acid extraction buffer (1 M HClO4, 3 mM EDTA, and 0.1 mg/ml1 IP6), and neutralised with neutralisation buffer (1 M K2CO3 and 3 mM EDTA). The lysates were centrifuged for 10 min, and the soluble fraction was resolved by HPLC as described earlier. The lipid pellet was lysed with 0.1% Triton X-100 in NaOH overnight. Each fraction was mixed with Ultima-Flo AP liquid scintillation cocktail (6013599, PerkinElmer), and radioactivity was counted in a scintillation counter. Quantity of inositol phosphates was presented as total counts/min (CPM) normalised by total lipid contents.

[4] = test system: Akt phosphorylation at Thr308 in HCT116 cells; test: AKT activation in HCT116 cells (Western blot); assay type: cell-based, human; settings: HCT116, 50 μM, 4 h, pAkt/Akt by Western blot
Procedure: Total proteins were quantified by bicinchoninic acid assay (23225, Thermo Fisher Scientific). Total 20 μg proteins were resolved in 8% SDS–PAGE, and then Akt phosphorylation was probed with primary antibodies against, phospho–Akt (Thr308) (4056) and Akt (9272) (Cell Signalling) and HRP-conjugated secondary antibody. The relative band intensities of Akt phosphorylation to total Akt were quantified with Image J software.

[5] = target: T2, recombinant microsomal CYP3A4 (Homo sapiens, UniProt P08684); test: In vitro CYP450 activity assay (Vivid CYP450 Blue screening kit, BOMCC); assay type: in vitro ADME; settings: recombinant CYP3A4, 100 nM treatment for 10 min, mean ± SEM
T2 construct: purchased Invitrogen P2858; host or cells: BACULOSOMES (microsomes of baculovirus-infected insect cells: own knowledge of the product)
T2 sequence (P08684 whole entry): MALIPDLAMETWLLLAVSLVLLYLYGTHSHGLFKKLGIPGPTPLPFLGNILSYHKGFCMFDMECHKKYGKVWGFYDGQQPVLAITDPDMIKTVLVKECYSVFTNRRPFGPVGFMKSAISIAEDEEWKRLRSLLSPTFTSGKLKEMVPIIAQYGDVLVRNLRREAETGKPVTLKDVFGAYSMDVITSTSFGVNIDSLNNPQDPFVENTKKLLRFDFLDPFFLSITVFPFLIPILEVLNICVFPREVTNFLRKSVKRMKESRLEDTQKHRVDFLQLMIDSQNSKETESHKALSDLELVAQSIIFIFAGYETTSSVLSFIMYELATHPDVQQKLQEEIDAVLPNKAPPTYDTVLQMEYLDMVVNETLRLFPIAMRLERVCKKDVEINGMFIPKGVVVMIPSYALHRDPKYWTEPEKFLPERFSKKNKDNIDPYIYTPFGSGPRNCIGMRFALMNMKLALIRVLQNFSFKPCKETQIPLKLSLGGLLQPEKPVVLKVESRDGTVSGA
Procedure: The activity of CYP3A4 was measured using the Vivid® CYP450 Blue screening kit (Cat No. P2858 for 3A4, Invitrogen). […] The system consisted of 100 μL of the final volume. The CYP450 substrate Vivid BOMCC and positive control inhibitor (ketoconazole), were dissolved in acetonitrile. […] The mixture containing test drugs, Vivid® CYP450 BACULOSOMES reagent, and Vivid® Regeneration system (Total 90 μL) was dispensed into a 96-well black plate and incubated at room temperature for 20 min. After adding 10 μL of Vivid® CYP450 reaction buffer (100 μM NADP, 10 μM Vivid® BOMCC), the mixture was incubated for 10 min at room temperature. […] The CYP450 3A4 inhibitory efficiency (%) of the test drug was calculated by comparing the reaction rates of the test compounds with the reaction rate of the positive control group (Ketoconazole) and the negative control group (0.1% Acetonitrile, 0.1% DMSO) using the measured fluorescence values.

Chain of purified CYP3A4 (P08684 whole entry): as above

Kd [1] [µM] | IC50 [2] | melting point [°C] | Relative 3A4 inhibition (% of TNP) [5] | Structure (SMILES) | CYP3A4 Kd (spectral dissociation constant) [1] | IP4, IP5, and IP6 levels [3] | cellular IP7 synthesis (effect in words) [3] | decrease of cellular IP7 synthesis compared to DMSO [3] [%] | increase in Akt phosphorylation at Thr308 compared to vehicle treatment [4]
22.2 ± 4.5 | 34.7 ± 0.7 µM | – | – | FC(F)(F)c1cccc(CNc2nc(NCc3ncc[nH]3)c3nc[nH]c3n2)c1 [Compound 14, N^6-((1H-imidazol-2-yl)methyl)-N^2-(3-(trifluoromethyl)benzyl)-9H-purine-2,6-diamine] | – | – | – | – | –
– | 24.7 ± 0.2 µM | – | – | Fc1ccc(CNc2nc(NCc3ncc[nH]3)c3nc[nH]c3n2)cc1 [Compound 15, N^6-((1H-imidazol-2-yl)methyl)-N^2-(4-fluorobenzyl)-9H-purine-2,6-diamine] | did not display any binding spectral change; also recorded: without binding to CYP3A4; also recorded: No binding^d | without notable changes | reduced cellular IP7 synthesis | – | more than 1.5 fold
40.5 ± 8 | 19.9 ± 0.1 µM | – | – | Clc1ccc(CNc2nc(NCc3ncc[nH]3)c3nc[nH]c3n2)cc1 [Compound 16, N^6-((1H-imidazol-2-yl)methyl)-N^2-(4-chlorobenzyl)-9H-purine-2,6-diamine] | – | – | – | – | –
7.9 ± 0.8 | 12.6 ± 0.4 µM | 289 | 116 ± 3 % of TNP | FC(F)(F)c1cccc(CNc2nc(NCc3nc4ccccc4[nH]3)c3nc[nH]c3n2)c1 [Compound 17, N^6-((1H-benzo[d]imidazol-2-yl)methyl)-N^2-(3-(trifluoromethyl)benzyl)-9H-purine-2,6-diamine] | – | – | – | – | –
11.1 ± 1 | 13.2 ± 0.4 µM | 287 | 120 ± 1 % of TNP | Fc1ccc(CNc2nc(NCc3nc4ccccc4[nH]3)c3nc[nH]c3n2)cc1 [Compound 18, N^6-((1H-benzo[d]imidazol-2-yl)methyl)-N^2-(4-fluorobenzyl)-9H-purine-2,6-diamine] | – | – | – | – | –
16.9 ± 3.7 | 19.3 ± 0.27 µM | 160 | 120 ± 0.66 % of TNP | Clc1ccc(CNc2nc(NCc3nc4ccccc4[nH]3)c3nc[nH]c3n2)cc1 [Compound 19, N^6-((1H-benzo[d]imidazol-2-yl)methyl)-N^2-(4-chlorobenzyl)-9H-purine-2,6-diamine] | – | – | – | – | –
– | 21.8 ± 0.3 µM | 153 | 65.7 ± 1.97 % of TNP | O=[N+]([O-])c1ccc(CNc2nc(NCc3nc4ccccc4[nH]3)c3nc[nH]c3n2)cc1 [Compound 20, N^6-((1H-benzo[d]imidazol-2-yl)methyl)-N^2-(4-nitrobenzyl)-9H-purine-2,6-diamine] | did not show any spectral dissociation constant value; also recorded: without binding to CYP3A4; also recorded: No binding^d | without notable changes | reduced cellular IP7 synthesis | – | more than 1.5 fold

Further lines, the compound ahead of its results:

Structure (SMILES) | Kd [1] [µM] | IC50 [2] | melting point [°C] | Relative 3A4 inhibition (% of TNP) [5] | CYP3A4 Kd (spectral dissociation constant) [1] | IP4, IP5, and IP6 levels [3] | cellular IP7 synthesis (effect in words) [3] | decrease of cellular IP7 synthesis compared to DMSO [3] [%] | increase in Akt phosphorylation at Thr308 compared to vehicle treatment [4]
CS(=O)(=O)c1ccc(CNc2nc(NCc3cccc(C(F)(F)F)c3)nc3[nH]cnc23)cc1 [Compound 6, N^6-(4-(methylsulfonyl)benzyl)-N^2-(3-(trifluoromethyl)benzyl)-9H-purine-2,6-diamine] | 24.8 ± 4.3 | 4.6 ± 0.2 µM | – | – | – | – | – | – | –
CS(=O)(=O)c1ccc(CNc2nc(NCc3ccc(F)cc3)nc3[nH]cnc23)cc1 [Compound 7, N^2-(4-fluorobenzyl)-N^6-(4-(methylsulfonyl)benzyl)-9H-purine-2,6-diamine] | 28.8 ± 2.7 | 7.3 ± 0.5 µM | – | – | – | – | – | – | –
CS(=O)(=O)c1ccc(CNc2nc(NCc3ccc(Cl)cc3)nc3[nH]cnc23)cc1 [Compound 8, N^2-(4-chlorobenzyl)-N^6-(4-(methylsulfonyl)benzyl)-9H-purine-2,6-diamine] | 14.4 ± 3.3 | – | – | – | – | – | – | – | –
CS(=O)(=O)c1ccc(CNc2nc(NCc3ccc([N+](=O)[O-])cc3)nc3[nH]cnc23)cc1 [Compound 9, N^6-(4-(methylsulfonyl)benzyl)-N^2-(4-nitrobenzyl)-9H-purine-2,6-diamine] | – | 16 µM and 16.8 µM | – | – | did not show any binding spectral change; also recorded: without binding to CYP3A4; also recorded: No binding^d | without notable changes | reduced cellular IP7 synthesis | ~44 | more than 1.5 fold
FC(F)(F)c1cccc(CNc2nc(NCc3cccnc3)c3nc[nH]c3n2)c1 [Compound 10, N^6-(pyridin-3-ylmethyl)-N^2-(3-(trifluoromethyl)benzyl)-9H-purine-2,6-diamine] | 1.4 ± 0.5 | 5.3 ± 0.3 µM | – | – | – | – | – | – | –
Fc1ccc(CNc2nc(NCc3cccnc3)c3nc[nH]c3n2)cc1 [Compound 11, N^2-(4-fluorobenzyl)-N^6-(pyridin-3-ylmethyl)-9H-purine-2,6-diamine] | 3 ± 0.6 | 5.9 ± 0.2 µM | – | – | – | – | – | – | –
Clc1ccc(CNc2nc(NCc3cccnc3)c3nc[nH]c3n2)cc1 [Compound 12, N^2-(4-chlorobenzyl)-N^6-(pyridin-3-ylmethyl)-9H-purine-2,6-diamine] | 1.8 ± 0.6 | – | – | – | – | – | – | – | –
O=[N+]([O-])c1ccc(CNc2nc(NCc3cccnc3)c3nc[nH]c3n2)cc1 [Compound 13, N^2-(4-nitrobenzyl)-N^6-(pyridin-3-ylmethyl)-9H-purine-2,6-diamine] | 2 ± 0.5 | 3.3 ± 0.8 µM | 251 | 126 ± 1 % of TNP | – | – | – | – | –
